Molecular target: T1, DNA gyrase B (E. coli DNA gyrase, supercoiling) (Escherichia coli, UniProt P0AES6)
T1 construct: gene gyrB; with DNA gyrase subunit A (GyrA)
Experiment: E. coli DNA gyrase supercoiling microplate assay kit (Inspiralis)
Format: biochemical

Row | SMILES | IC50 [µM]
1 | CC(=NNc1nc(C)c(N=Nc2ccccc2)s1)c1cc2ccc(O)cc2oc1=O [6a, 7-Hydroxy-3-(-1-{2-[4-methyl-5-(phenyldiazenyl)thiazol-2-yl]hydrazono}ethyl)-2H-chromen-2-one] | 56.6
2 | CC(=NNc1nc(C)c(N=Nc2ccc(F)cc2)s1)c1cc2ccc(O)cc2oc1=O [6c, 3-(-1-{2-[5-((4-fluorophenyl)diazenyl)-4-methylthiazol-2-yl]hydrazono}ethyl)-7-hydroxy-2H-chromen-2-one] | 93.4
